Measured values as given in patent publication EP4692089A1, “NITROGEN-CONTAINING HETEROCYCLIC COMPOUND AS AAK1 INHIBITOR” (Alicorn Pharmaceutical Co., Ltd., priority 2023, dated 2024).
Structures can show the parent of a compound that is named as a salt. Each block holds one compound with its values, some of them ahead of it.

What was measured:
AAK1 (30-330) protein [1] = biological target: T1, AAK1 (30-330) protein (Homo sapiens, UniProt Q2M2I8); assay: CETSA test of binding ability to AAK1 protein (Western blot)
T1 construct: (His)6x (N); TEV protease cleavage site (N); made in house; host or cells: Escherichia coli BL21(DE3)
T1 sequence (Q2M2I8 30-330): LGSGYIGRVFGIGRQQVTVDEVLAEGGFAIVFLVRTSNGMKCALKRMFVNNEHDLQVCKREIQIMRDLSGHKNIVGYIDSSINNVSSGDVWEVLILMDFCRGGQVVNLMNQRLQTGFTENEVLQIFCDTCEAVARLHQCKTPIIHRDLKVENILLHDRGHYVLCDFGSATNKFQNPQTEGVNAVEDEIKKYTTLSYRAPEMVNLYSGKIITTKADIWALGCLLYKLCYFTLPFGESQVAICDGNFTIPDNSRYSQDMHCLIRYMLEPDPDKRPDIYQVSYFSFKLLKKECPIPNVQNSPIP
Method: Experimental objective: To detect the binding ability of compounds to AAK1 protein by means of a CETSA experiment.
Background principle: The CETSA experiment is a molecular detection means for measuring the affinity between drugs and target proteins. […] When a candidate drug is co-incubated with a target protein, if the candidate drug is an inhibitor of AAK1, it can bind to AAK1. […] On the contrary, the stability of the AAK1 protein after heating will be poorer, and the amount of the detected protein will be lower. In this way, the binding ability of the drug to the target protein can be evaluated, which is used for the screening of AAK1 protein inhibitors.
(§1) Expression of AAK1 (30-330) protein: The AAK1 sequence (residues 30-330) was cloned into the pET24N vector with an N-terminal (His)6x tag and a tobacco etch virus (TEV) protease cleavage site. The constructed vector was transformed into Escherichia coli BL21(DE3). When the bacteria were cultured with shaking to reach an OD value of 0.6, 1 mM IPTG was added. […] The bacterial cells were collected and subjected to ultrasonic disruption. The supernatant was obtained by centrifugation, and the protein was purified using Ni-NTA. After dialysis, the concentration and purity of the protein were determined.
CETSA sample preparation: Samples were incubated with candidate drugs, control drugs, and control reagents separately for 30 minutes. Each group of samples was heated at approximately 10 pre-set temperature points. After being returned to room temperature, the samples were centrifuged at 20000 g, and the supernatants were collected. Protein samples were denatured by heating at 100°C for 10 minutes with a sample buffer. After the samples were returned to room temperature, Western blot detection was performed on them; the protein loading amount was controlled at 20 µg. […] The same operations were followed, and Western blot detection was conducted. Protein electrophoresis: The voltage for the stacking gel was set at 60 V, and that for the separating gel was set at 120 V. After electrophoresis, electrotransfer was initiated. Electrotransfer conditions were set at 250 mA for 2 h. Blocking with 5% BSA was performed for 1 h. A specific primary antibody was added, and incubation was carried out overnight at 4°C on a shaker. Washing with TBST was conducted 4 times, with 2.5 minutes each time. A secondary antibody was incubated on a shaker at room temperature for 1 h. Washing with TBST was conducted 4 times, with 2.5 minutes each time. ECL was used for development to detect the expression levels of AAK1 protein in different groups and at each temperature point. Western blot bands were processed and converted using Image J and GraphPad software to calculate EC50.

AAK1 = biological target: T2, AAK1 (Homo sapiens, UniProt Q2M2I8); assay: Effect on AP2M1 phosphorylation in 293T cells co-transfected with AAK1 and AP2M1 (Western blot, anti-p-AP2M1); type: cell-based; conditions: p-AP2M1 level, incubated 3 h
T2 construct: HA; expressed in transfected cells; host or cells: 293T cells
T2 sequence (Q2M2I8 whole entry): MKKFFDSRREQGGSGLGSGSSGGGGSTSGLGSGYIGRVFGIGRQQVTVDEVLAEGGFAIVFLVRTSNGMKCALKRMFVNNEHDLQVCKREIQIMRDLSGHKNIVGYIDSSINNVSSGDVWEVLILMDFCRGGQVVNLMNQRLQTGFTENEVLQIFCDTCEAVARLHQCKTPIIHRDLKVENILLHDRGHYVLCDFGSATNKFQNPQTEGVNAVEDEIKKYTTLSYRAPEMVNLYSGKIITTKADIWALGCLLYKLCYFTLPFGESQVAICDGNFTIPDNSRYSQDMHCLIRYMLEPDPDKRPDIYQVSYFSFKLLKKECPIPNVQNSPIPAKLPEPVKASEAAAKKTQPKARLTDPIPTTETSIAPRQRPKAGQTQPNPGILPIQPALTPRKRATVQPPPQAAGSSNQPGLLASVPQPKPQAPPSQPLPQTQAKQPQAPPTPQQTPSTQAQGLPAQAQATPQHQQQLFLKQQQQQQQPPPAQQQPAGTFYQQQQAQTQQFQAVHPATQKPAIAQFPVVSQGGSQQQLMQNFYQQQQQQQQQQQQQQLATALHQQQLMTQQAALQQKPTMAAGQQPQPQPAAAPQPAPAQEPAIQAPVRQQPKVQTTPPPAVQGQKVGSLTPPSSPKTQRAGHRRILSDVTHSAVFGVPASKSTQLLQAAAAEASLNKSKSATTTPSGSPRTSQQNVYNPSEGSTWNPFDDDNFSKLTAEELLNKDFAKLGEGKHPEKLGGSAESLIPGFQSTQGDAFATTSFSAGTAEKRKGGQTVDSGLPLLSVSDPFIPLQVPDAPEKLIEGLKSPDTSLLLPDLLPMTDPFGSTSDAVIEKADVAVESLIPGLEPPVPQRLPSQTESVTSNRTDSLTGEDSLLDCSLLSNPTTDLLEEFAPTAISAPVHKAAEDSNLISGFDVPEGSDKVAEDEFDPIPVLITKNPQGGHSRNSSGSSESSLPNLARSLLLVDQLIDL
Source text: Experimental objective: The objective of this test example is to determine the effect of compounds on AP2M1 phosphorylation in cells.
Background principle: Adaptor-associated kinase 1 (AAK1), also known as AP2-associated kinase 1, is a 104 kDa serine/threonine kinase. AAK1 interacts with the adaptor protein 2 (AP2) complex and phosphorylates the threonine residue in the micro-subunit of AP2 (AP2M1), thereby increasing its binding affinity for certain tyrosine-based or dileucine-based sorting signals of some membrane receptors. The inhibitory effect of compounds on AAK1 was evaluated by detecting the phosphorylation level of AP2M1 in cells, so as to screen candidate compounds.
On the second day, each T25 flask was co-transfected with 16 µg of plasmids (1 µg of AAK1/HA/pIRES and 15 µg of Flag/AP2MI/pcDNA) using a Lip2000 transfection reagent. On the third day, the cells were digested and resuspended, centrifuged at 1000 rpm for 5 minutes, and then seeded into 24-well plates at 450 µl per well (2 × 10^5 cells/well). Gradient dilutions of the compounds to be tested were prepared, 50 µl was added to each well, mixed thoroughly, and incubated at 37°C for 3 h. DMSO was set as a control, and cells without plasmid transfection were set as a blank control. After incubation, the cells were collected and washed twice with PBS. The cells were lysed on ice for 30 minutes using a cell lysis buffer containing the protease inhibitor PMSF. The concentration of protein samples was determined using a BCA kit. Protein electrophoresis: The voltage for the stacking gel was set at 60 V, and that for the separating gel was set at 120 V. After electrophoresis, electrotransfer was initiated. Electrotransfer conditions were set at 250 mA for 2 h. Blocking with 5% BSA was performed for 1 h. A specific primary antibody, anti-p-AP2M1, was added, and incubation was carried out overnight at 4°C on a shaker. Washing with TBST was conducted 4 times, with 2.5 minutes each time. A secondary antibody was incubated on a shaker at room temperature for 1 h. Washing with TBST was conducted 4 times, with 2.5 minutes each time. ECL was used for development to detect the expression level of p-AP2M1. Western blot bands were processed and converted using Image J and GraphPad software to calculate IC50.
IC50 (half maximal inhibitory concentration) refers to the half-inhibitory concentration of the measured antagonist. It can indicate the concentration of a certain drug or substance (inhibitor) that achieves half of the inhibition effect on certain biological processes (or certain substances involved in these processes, such as enzymes, cellular receptors, or microorganisms).

AAK1 (30-330) protein [2] = biological target: T1, AAK1 (30-330) protein; assay: AAK1 kinase assay (ADP generated, detected by HPLC); type: biochemical; conditions: 3.5 nM AAK1, 22 µM ATP, 25°C, 3 h
Source text: Experimental objective: The objective of this test example is to test the effect of compounds on AAK1 kinase function.
Background principle: AAK1 phosphorylates the threonine residue in the micro-subunit of AP2 (AP2M1). In this process, ATP provides phosphate groups to generate ADP. Therefore, the activity of AAK1 kinase can be evaluated by detecting the amount of ADP generated.
as §1
The reaction mixture was incubated in a metal bath at 25°C for 3 h. The reaction was terminated by adding 1% SDS, and the amount of ADP generated was detected by HPLC. IC50 values were calculated using GraphPad software.

[3] = test system: streptozotocin (STZ)-induced peripheral neuropathic pain (DPNP) in diabetic rat models; assay: Efficacy test in diabetic peripheral neuropathic pain (DPNP), Von Frey pain threshold; type: in vivo, SD rats
Method: Experimental methods: After the adaptation period, the rats were tested for baseline plantar pain threshold using the Von Frey (Up-Down method) before modeling. Subsequently, except for the blank control group, all other rats were fasted for 16 hours with free access to water and then intraperitoneally injected with streptozotocin for modeling (65 mg/kg; 2 mL/kg). One week after modeling, blood was collected from the tail tip to detect blood glucose levels after a 4-hour fast. Rats with blood glucose levels higher than 16.7 mmol/L were considered diabetic.

[4] = Pharmacokinetic test in SD rats; conditions: rat, plasma, po, 3 mg/kg
Method: Experimental objective: The objective of this experimental example is to test the pharmacokinetic profile of compounds in SD rats.
Route of administration: The animals were weighed before administration, and the dose was calculated based on their body weight. Administration was performed via intravenous injection and oral gavage.
Blood collection time points: After administration, for IV group: 0.083 h, 0.25 h, 0.5 h, 1 h, 2 h, 4 h, 8 h, and 24 h; for PO group: 0.25 h, 0.5 h, 1 h, 2 h, 4 h, 6 h, 8 h, and 24 h. Blood was collected via the jugular vein, with approximately 0.2 mL collected for each sample. The blood samples were anticoagulated with K2-EDTA and placed on ice after collection.
Plasma sample processing: After collection, the blood samples were placed on ice and centrifuged within 1 hour to separate plasma (centrifugation conditions: 6800g, 6 minutes, 2-8°C). The plasma samples were stored in a -80°C refrigerator before analysis.
Result analysis: Pharmacokinetic parameters were calculated using Phoenix WinNonlin 7.0 based on the plasma concentration data at different time points.

[5] = Blood-brain distribution in DPNP model rats; conditions: 1 mg/kg
Method: Experimental objective: This experiment aims to investigate the analgesic effect of test compounds on streptozotocin (STZ)-induced peripheral neuropathic pain (DPNP) in diabetic rat models and the brain-blood distribution of the compounds associated with the efficacy, via single oral gavage (ig.) administration.
After successful modeling, the baseline plantar pain threshold of the rats was tested using the Von Frey (UP-Down method) as the baseline pain threshold before administration, and the rats were evenly grouped according to their pain thresholds. The groups included a blank control group, a model group, a positive control group (1 mg/kg), a Compound 26 (0.5 mg/kg) group, and a Compound 26 (1 mg/kg) group. The next day, the rats were administered the vehicle or corresponding drugs. At 2 h, 3 h, 4 h, 5 h, and 6 h after administration, the pain threshold of the plantar region on the affected side of rats was determined using Von Frey filaments to calculate the pain threshold improvement rate of the test compounds against neuropathic pain in diabetic rats, and to observe the time-effect relationship. After the experiment, rats from groups G3-G5 (numbers 1-3 per group) were sacrificed, and plasma and brain tissue samples were collected for testing.

[6] = DPNP model rats, 6 h after intragastric administration

Structure (SMILES): CC(C)C[C@](C)(N)COc1ccc(-c2ccnc(C(F)F)c2)nc1C(F)F [BMS-986176, reference compound]
- EC50 (AAK1 (30-330) protein [1]): 100 to 1000 nM
- IC50 (AAK1): 100 to 1000 nM
- IC50 (AAK1 (30-330) protein [2]): 260 nM
- MWT (g) After modeling ([3]; 1 mg/kg group, after modeling, before administration, x±s, n=5): 7.00 ± 1.83 g
- Pain threshold improvement rate 2h ([3]; 1 mg/kg single ig., 2 h): 64.51
- MWT (g) 2h ([3]; 1 mg/kg single ig., 2 h after administration, x±s, n=5): 10.38 ± 2.59 g
- Pain threshold improvement rate 3 h ([3]; 1 mg/kg single ig., 3 h): 42.24
- MWT (g) 3 h ([3]; 1 mg/kg single ig., 3 h after administration, x±s, n=5): 7.51 ± 4.29 g
- Pain threshold improvement rate 4h ([3]; 1 mg/kg single ig., 4 h): 20.35
- MWT (g) 4 h ([3]; 1 mg/kg single ig., 4 h after administration, x±s, n=5): 5.06 ± 2.76 g
- Pain threshold improvement rate 5 h ([3]; 1 mg/kg single ig., 5 h): 16.32
- MWT (g) 5 h ([3]; 1 mg/kg single ig., 5 h after administration, x±s, n=5): 4.82 ± 1.07 g
- Pain threshold improvement rate 6h ([3]; 1 mg/kg single ig., 6 h): 20.85
- MWT (g) 6h ([3]; 1 mg/kg single ig., 6 h after administration, x±s, n=5): 4.63 ± 0.64 g
- duration of analgesia ([3]; 1 mg/kg, time after administration): ≤ 4 h
- AUC(0-inf) [4]: 1160 ng·h/mL
- AUC(0-t) [4]: 1070 ng·h/mL
- Cmax [4]: 85.6 ng/mL
- MRT inf [4]: 9.5 h
- MRT last [4]: 7.52 h
- Tmax [4]: 3.33 h
- half-life [4]: 6.32 h
- Brain tissue concentration [5, 6]: 26.94 ng/mL
- Brain tissue concentration* [5, 6]: 296.36 ng/g
- Plasma concentration [5, 6]: 34.38 ng/mL
- Kp at 6 h ([5]; rat, brain, po): 8.62

Structure (SMILES): Cc1nc2ccnn2c(-c2ccc(OC[C@](C)(N)CC(C)C)c(C(F)F)n2)c1F [Compound 21]
- EC50 (AAK1 (30-330) protein [1]): 100 to 1000 nM
- IC50 (AAK1): 10 to 100 nM
- IC50 (AAK1 (30-330) protein [2]): 190 nM

Structure (SMILES): CC(C)C[C@](C)(N)COc1ccc(-c2ccnc3c(C(=O)O)cnn23)nc1C1CC1 [Compound 22]
- EC50 (AAK1 (30-330) protein [1]): 100 to 1000 nM
- IC50 (AAK1): 10 to 100 nM
- IC50 (AAK1 (30-330) protein [2]): 170 nM

Structure (SMILES): CC(C)C[C@](C)(N)COc1ccc(-c2c[nH]c3ncc(C(F)F)cc23)cc1C(F)(F)F [Compound 33]
- EC50 (AAK1 (30-330) protein [1]): 10 to 100 nM
- IC50 (AAK1): 10 to 100 nM
- IC50 (AAK1 (30-330) protein [2]): 69.5 nM

Structure (SMILES): CC(C)C[C@](C)(N)COc1ncc(-c2c[nH]c3ncc(C(F)F)cc23)c(C(F)(F)F)n1 [Compound 39]
- EC50 (AAK1 (30-330) protein [1]): 10 to 100 nM
- IC50 (AAK1): 10 to 100 nM
- IC50 (AAK1 (30-330) protein [2]): 101 nM

Continued, values first:

- EC50 (AAK1 (30-330) protein [1]): 10 to 100 nM
- IC50 (AAK1): 10 to 100 nM
- IC50 (AAK1 (30-330) protein [2]): 102 nM
Structure (SMILES): Cc1nc2ccnn2c(-c2ccc(OC[C@@](C)(N)CC(C)C)c(C(F)F)n2)c1F [Compound 20]

- EC50 (AAK1 (30-330) protein [1]): 10 to 100 nM
- IC50 (AAK1): 100 to 1000 nM
- IC50 (AAK1 (30-330) protein [2]): 57.8 nM
Structure (SMILES): CC(C)C[C@](C)(N)COc1ccc(-c2c[nH]c3ncc(C#N)cc23)nc1C(F)F [Compound 27]

- EC50 (AAK1 (30-330) protein [1]): 10 to 100 nM
- IC50 (AAK1): 10 to 100 nM
- IC50 (AAK1 (30-330) protein [2]): 65.3 nM
Structure (SMILES): CC(C)C[C@](C)(N)COc1ccc(-c2c[nH]c3ncc(C(F)F)cc23)nc1C(F)F [Compound 28, (S)-1-{[2-(difluoromethyl)-6-[5-(difluoromethyl)-1H-pyrrolo[2,3-b]pyridin-3-yl]pyridin-3-yl]oxy}-2,4-dimethylpentan-2-amine formate]

- EC50 (AAK1 (30-330) protein [1]): < 10 nM
- IC50 (AAK1): < 10 nM
- IC50 (AAK1 (30-330) protein [2]): 12.1 nM
Structure (SMILES): CC(C)C[C@](C)(N)COc1ccc(-c2cn(C)c3ncc(F)cc23)nc1C(F)F [Compound 43, (S)-1-{[2-(difluoromethyl)-6-(5-fluoro-1-methyl-1H-pyrrolo[2,3-b]pyridin-3-yl)pyridin-3-yl]oxy}-2,4-dimethylpentan-2-amine]

- EC50 (AAK1 (30-330) protein [1]): < 10 nM
- IC50 (AAK1): < 10 nM
- IC50 (AAK1 (30-330) protein [2]): 8.2 nM
Structure (SMILES): CC(C)C[C@](C)(N)COc1ccc(-c2c[nH]c3ncc(Cl)cc23)nc1C(F)F [Compound 44, (S)-1-{[6-(5-chloro-1H-pyrrolo[2,3-b]pyridin-3-yl)-2-(difluoromethyl)pyridin-3-yl]oxy}-2,4-dimethylpentan-2-amine]

- EC50 (AAK1 (30-330) protein [1]): < 10 nM
- IC50 (AAK1): < 10 nM
- IC50 (AAK1 (30-330) protein [2]): 6.5 nM
Structure (SMILES): Cc1cnc2[nH]cc(-c3ccc(OC[C@@](C)(N)CC(C)C)c(C(F)F)n3)c2c1 [Compound 45, (S)-1-{[2-(difluoromethyl)-6-(5-methyl-1H-pyrrolo[2,3-b]pyridin-3-yl)pyridin-3-yl]oxy}-2,4-dimethylpentan-2-amine diformate]
